5 compounds from US11123272B2, “Cosmetic blends” (Symrise AG, priority 2016, dated 2021) can be followed below.

The target in the test is T1, human TREK-1 receptor (Homo sapiens, UniProt O95069).
T1 construct: expressed in transfected cells
T1 sequence (O95069 1-426): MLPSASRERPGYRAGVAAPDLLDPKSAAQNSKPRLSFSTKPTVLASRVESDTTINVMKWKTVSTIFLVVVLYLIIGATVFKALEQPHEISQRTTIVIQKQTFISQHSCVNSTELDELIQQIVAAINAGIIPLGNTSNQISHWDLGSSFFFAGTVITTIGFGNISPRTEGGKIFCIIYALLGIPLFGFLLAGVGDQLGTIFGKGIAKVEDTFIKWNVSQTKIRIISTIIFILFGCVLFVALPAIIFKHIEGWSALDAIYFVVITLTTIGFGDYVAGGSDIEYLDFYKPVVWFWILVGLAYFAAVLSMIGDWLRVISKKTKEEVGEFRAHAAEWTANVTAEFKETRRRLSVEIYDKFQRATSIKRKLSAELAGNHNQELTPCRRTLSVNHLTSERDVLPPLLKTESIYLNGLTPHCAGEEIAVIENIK
Nature of the test: TREK receptor screening: TREK-1 mediated currents by manual patch clamp in transfected frog oocytes. The test is classed as cell-based. The settings on record: at 1 mMol; None = 1.000. From the text:
The human TREK-1 receptor is a temperature sensitive, mechano-gated potassium channels, present in human skin and neuronal cells. It is known to be involved in the signaling of temperature sensation. Here it cooperates with other ion channels in the relevant cell types.
To screen for TREK-1 receptor channel blockers, frog oocyte were transfected to transiently overexpress the human TREK-1 receptor. A substance database was screened on the cells. Read out was TREK-1medited currents, detected by manual patch clamp.
A general note: Patch clamp records ionic current or voltage across a cell membrane.

As for `CCCCCCCCC(O)CO` (centres unmarked) [1,2-Decandiol], the “Blockade of TREK-1 receptor, F.I.” value is given as 0.773. For `CNCCC(Oc1ccc(C(F)(F)F)cc1)c1ccccc1` (centres unmarked) [Fluoxetine, reference compound] the value was 0.679. `CCCCCCCCCCC(O)CO` (centres unmarked) [1,2-Dodecandiol]: the “Blockade of TREK-1 receptor, F.I.” value came out at 0.733. For `CCCCCCC(O)CO` (centres unmarked) [1,2-Octandiol] the value was 0.855; for `CCCCC(O)CO` (centres unmarked) [1,2-Hexandiol], 0.942.
